Key:
Assay type in all cases: in vivo, mouse
[1] = tested on: gene expression in microglia, oligodendrocytes, neurons and astrocytes; assay: Single-cell and single-nucleus RNA sequencing of brain tissue; details: 5×FAD mice
Procedure: Gene expression changes in microglia are strongly associated with AD pathogenesis. Thus, the effect of these treatments on gene expression using single-cell RNA sequencing was investigates (10× Genomics, #Chromium Next GEM Single Cell 3′ Kit v3.1, 16 rxns PN-1000268). […] The gene expression changes between treatment conditions in the microglia cluster were examined. […] Further, due to the depth of the gene expression analysis sub-clustering of microglia was performed.
As neurons were not represented from the single-cell RNA-sequencing (FIGS. 8A-12), to study the effect of these treatments on gene expression in neurons, single nucleus RNA-sequencing was performed (10× Genomics, #Chromium Next GEM Kit v3.1, 16 rxns PN-1000268). […] The gene expression changes between treatment conditions in the interneurons cluster were examined.
Mice were killed and the brain tissue was freshly dissected out and the single cell suspension or nuclei was prepared. Single cell RNA libraries were prepared using the Chromium Next GEM Single Cell 3′ Kit v3.1 according to the manufacturer's protocol (10× Genomics). The generated scRNA-seq libraries were sequenced using NovaSeq. Gene counts were obtained by aligning reads to the mouse genome. […]
RNA sequencing: The animals and brain tissues were prepared, and then the single nuclei from the brain tissue was then obtained. […] The RNA-seq data was analyzed in R package. […]

C1q = C1q signal intensity immunohistochemistry; details: 5×FAD mice
Text: Elevated expression of C1q is observed in both human AD and mouse models of AD, and further such an elevated expression is closely associated with the elimination of synapses in microglia. In addition, MHC2 expression is increased in the AD brain. Therefore, to test whether these treatments, that improved synaptic density, had any effect on these neuroinflammatory markers, C1q (Abcam, #ab182451) and MHC2 (EMD Millipore, #MABF33) levels (FIGS. 5A-5D) were examined.
C1q and MHC2 signal intensity: Using an LSM 710 with a 20× or 40× objectives, z stacks of the entire slice thickness […] (40 images from each field) were acquired. The signal intensity was measured.
C1q and MHC2 signal intensity: Using an LSM 710 with a 20× or 40× objectives, z stacks of the entire slice thickness […] (40 images from each field) were acquired. The signal intensity was measured in Imaris.

vGAT = vGAT synaptic puncta immunohistochemistry; details: 5×FAD mice, visual cortex
Procedure: Loss of synapses and neurons are closely associated with higher neuroinflammatory response and cognitive decline in AD. Therefore, synaptic markers in the visual cortex of Plx3397 and/or GENUS treated mice were evaluated. […] Thus, whether these treatments had any effect on neuronal density by immunohistochemical analysis of neuronal marker NeuN was examined (Synaptic Systems, #266 004) positive cells (FIG. 4A).
vGAT and vGLUT1 puncta: LSM 710, with a 40× objective, was used to acquire the images. The entire […] thickness of the slices was acquired in Z stacks—80 per image (step of 0.5 μm). The spot-count inbuilt function in Imarisx64 9.3 was used to count cells automatically.
vGAT and vGLUT1 puncta: LSM 710, with a 40× objective, was used to acquire the images. The entire […] thickness of the slices was acquired in Z stacks—80 per image (step of 0.5 μm). The spot-count inbuilt function in Imarisx64 9.3 (cohortl) and 9.7 (cohort 2) was used to count cells automatically.

SMILES: FC(F)(F)c1ccc(CNc2ccc(Cc3c[nH]c4ncc(Cl)cc34)cn2)cn1 [Plx3397, Pexidartinib]
- genes related to Tyrobp-trem2-Apoe pathway in microglia ([1]; single-cell RNA sequencing, microglia cluster): upregulated
- abnormal synaptic transmission genes in E-neurons ([1]; visual cortex, snRNA-seq): upregulated
- C1q levels (C1q; hippocampus, chronic Plx3397 vs control): reduced
- C1q (C1q; visual cortex, Plx3397 50 days): 22040955±1586416 au
- vGAT synaptic puncta (vGAT; IHC): 109.9±2.235 % of no treatment control
- vGAT positive synaptic puncta (vGAT; vs untreated): significant increase
